Results taken from patent US10028992B2, “Methods of treating muscular dystrophy” (BOARD OF REGENTS OF THE NEVADA SYSTEM OF HIGHER EDUCATION …, priority 2012, dated 2018).
Where two headings read alike, the source gives them in different places.

Test system: α7 integrin promoter
Assay: muscle cell-based assay: α7βgal+/− myoblasts/myotubes, LacZ reporter, β-galactosidase cleavage of FDG
Parameters: species or system mouse
Settings: for AC50: Mus musculus, read-out: Fit Log AC50 (converted)
Description: An α7 integrin null mouse was produced in which exon 1 of the gene encoding the α7 integrin was replaced by the LacZ reporter. In these mice, all the transcriptional regulatory elements of the α7 integrin promoter were retained, allowing β-galactosidase to report expression of 7 integrin. A primary myoblast cell line (designated α7βgal^+/−) isolated from 10 day old α7^+/− pups were analyzed for the ability of β-galactosidase to report α7 integrin expression. α7βgal^+/− myoblasts were differentiated and subjected to X-gal staining and western analysis (FIGS. 1A and 1B).
The activity of the α7 integrin promoter was measured by β-galactosidase cleavage of the non-fluorescent compound fluorescein di-β-D-galactopyranoside (FDG) to fluorescein. This assay was used to screen compound libraries to identify molecules that up-regulate α7 integrin expression in muscle.
Also evaluated was the effect of various isoforms of laminin and the ligand for α7β1 integrin on integrin expression. Positive hits were subjected to dose-response analysis, western analysis and a myostatin counterscreen (a negative regulator of muscle growth).

[1] = Table 12, log of AC50, given with negative sign, unit of AC50 not given
[2] = Table 12, fitted activity at zero concentration
[3] = Table 12 Compound data, concentration-response curve fit
[4] = Table 12, fitted activity at infinite concentration

SMILES	AC50 [1]	Fit HillSlope (Table 12, curve fit)	Fit Zero Activity [%] [2]	Fit Curve Class (Table 12, key not given)	Score [3]	Curve Description	Fit Curve Class	Fit HillSlope	Fit Infinite Activity [%]	Fit Log AC50	Fit Zero Activity [%]	Score	Fit Infinite Activity [%] [4]	Fit Log AC50 [1]
O=C(COC(=O)c1cc2ccccc2oc1=O)Nc1ccc(F)cc1F [Compound 60]	4.47 µM	1.7529	−12.5146%	2.1	45									
CCNC(=O)CSc1nc(-c2ccc(F)cc2)cs1 [Compound 61]	5.01 µM	1.1705	−3.94%	2.1	45									
CC(C)NC(=O)CN1CCN(C(=O)CCl)CC1.Cl [Compound 62]	7.08 µM	1.9673	−23.864%	2.1	45									
CS(=O)(=O)N(Cc1ccc(C(=O)NC2CCCC2)cc1)c1ccccc1 [Compound 63]	10 µM	3.1925	−1.7425%	2.1	45									
C=CCN(CC=C)C(=O)c1ccc(OC2CCN(S(=O)(=O)N(C)C)CC2)cc1 [Compound 64]	5.01 µM	2.4729	−4.9734%	2.1	45									
O=C(O)CCn1cc(/C=C2/NC(=S)N(c3ccccc3)C2=O)c(-c2ccccc2)n1 [Compound 65]						Partial	2.1	4.095	501.215%	−4.7	9.2299%	45		
CCc1nnc(NC(=O)c2ccc(S(=O)(=O)NCC(C)C)cc2)s1 [Compound 66]	12.6 µM	4.5045	11.9175%	2.1	45									
CC1CCCCC12NC(=O)N(CC(=O)OCc1cccc(F)c1)C2=O (centres unmarked) [Compound 67]	10 µM	1.4163	4.7344%	2.1	44									
CNc1nnc(SCC(=O)c2cc(C)n(C3CC3)c2C)s1 [Compound 68]	12.6 µM	4.5045	−17.9914%	2.1	44									
CCCCNc1nnc(SCC(=O)c2c(N)n(CCC)c(=O)[nH]c2=O)s1 [Compound 69]	3.98 µM	1.3987	−2.436%	2.1	44									
C/C(=N\OCC(=O)OC(C)C(=O)Nc1ccc(C(N)=O)cc1)c1ccc2c(c1)OCO2 (centres unmarked) [Compound 70]	4.47 µM	1.2876	−19.1057%	2.1	44									
COc1cc(C(C(=O)NC2CCCCC2)N(C(=O)c2snc(C(N)=O)c2N)c2ccc(C)cc2)ccc1O (centres unmarked) [Compound 71]	7.94 µM	1.3443	−2.1806%	2.1	44									
CC1CCN(S(=O)(=O)c2ccc(S(=O)(=O)N3CCCC3)cc2)CC1 [Compound 72]	8.91 µM	2.3332	−2.3089%	2.1	44									
CCC(CC)C(=O)Nc1c(C(=O)N2CCN(c3ccccc3)CC2)oc2ccccc12 [Compound 73]	12.6 µM	4.095	16.3113%	2.1	44									
COc1ccc(CCNC(=O)c2nn(C)c3c2CS(=O)(=O)c2ccccc2-3)cc1OC [Compound 74]	4.47 µM	1.8617	−23.105%	2.1	44									
COc1ccc(Nc2ncnc3ccc(Br)cc23)cc1OC [Compound 75]	3.98 µM	1.5579	26.9551%	2.2	44									
CCOc1ccc2ccccc2c1C1NC(=O)N(C)C(C)=C1C(=O)OCCOC (centres unmarked) [Compound 76]	6.31 µM	1.3443	−8.518%	2.1	44									
Cc1ccc(NC(=O)NCc2nc3ccccc3n2C)cc1 [Compound 77]	4.47 µM	1.8617	−34.2328%	2.1	44									
COc1ccc(C(=O)ONC(=N)c2cccc(C)c2)cc1OC [Compound 78]	10 µM	1.7137	9.6566%	2.1	44									

SMILES	AC50 [1]	Fit HillSlope (Table 12, curve fit)	Fit Zero Activity [%] [2]	Fit Curve Class (Table 12, key not given)	Score [3]	Curve Description	Fit Curve Class	Fit HillSlope	Fit Infinite Activity [%]	Fit Log AC50	Fit Zero Activity [%]	Score	Fit Infinite Activity [%] [4]	Fit Log AC50 [1]
CNc1cc([N+](=O)[O-])ccc1OCc1ccccc1 [Compound 79]	4.47 µM	1.3437	−0.3646%	2.1	44									
COC(=O)Cc1c(O)ccn(Cc2ccc3c(c2)OCO3)c1=O [Compound 80]	10 µM	1.4163	−6.484%	2.1	44									
O=C(Nc1ccccc1F)c1ccc([N+](=O)[O-])s1 [Compound 81]	12.6 µM	4.5045	3.1931%	2.1	44									
C/N=C(\S)N1CCC(NC(=O)C(Cc2ccc(F)cc2)NC(C)=O)CC1 (centres unmarked) [Compound 82]	3.16 µM	1.1341	−6.4745%	2.1	44								89.9991%	
CCS(=O)(=O)N1CCCC(C(=O)c2ccc(OC)cc2C)C1 (centres unmarked) [Compound 83]	11.2 µM	2.0937	−12.9886%	2.1	44									
CCCS(=O)(=O)N1CCCC(C(=O)c2cccc(Cl)c2)C1 (centres unmarked) [Compound 84]	6.31 µM	1.2221	−7.9639%	2.1	44									
CC(C)(C)c1ccc(C(=O)OCC(=O)Nc2sc3c(c2C#N)CCC3)cc1 [Compound 85]	5.01 µM	1.8617	3.2331%	2.1	44									
Cc1ccc(C2=C(CC(=O)O)C(=O)CC2)cc1 [Compound 86]	4.47 µM	0.8	0.4963%	2.1	44									
CN(C)c1ccnc2sc(C(N)=O)c(N)c12 [Compound 87]		2.1211	21.3502%	2.2	44									
C[C@H]1CNC(=O)c2c(C(=O)Nc3ccc(CNC(=O)OC(C)(C)C)cc3)ncn21 [Compound 88]	8.91 µM	1.01	9.418%	2.1	43									
CCCN(C(=O)c1ccc(S(=O)(=O)N2CCCC2)cc1)C1CCS(=O)(=O)C1 (centres unmarked) [Compound 89]	5.01 µM	1.6924	−10.8957%	2.2	43									
CN(CC(=O)Nc1cccc(F)c1)C(=O)c1ccc(-c2ccc(Cl)cc2)o1 [Compound 90]	11.2 µM	4.5045	5.7331%	2.1	43									
COc1ccc(C(=O)N/C(=C/c2cccnc2)C(=O)N2CCN(C)CC2)cc1OC [Compound 92]	4.47 µM	1.6259	1.7602%	2.2	43									
COc1cccc(C(=O)NCC(=O)N2CCC3(CC2)NCCc2[nH]cnc23)c1 [Compound 93]	11.2 µM	1.7529	−3.6365%	2.1	43									
COc1ccc(-c2csc3ncnc(N4CCN(c5ccccc5[N+](=O)[O-])CC4)c23)cc1 [Compound 94]		4.9549	9.6823%	2.1	43								138.031%	−5
O=C(COc1cc2oc(=O)c3c(c2cc1Cl)CCCC3)NC[C@H]1CC[C@H](C(=O)O)CC1 [Compound 95]	7.08 µM	1.01	−14.8966%	2.2	43									
COCCn1c(=N)c(S(=O)(=O)c2ccc(Br)cc2)cc2c(=O)n3ccccc3nc21 [Compound 96]	4.47 µM	1.9887	−8.0822%	2.2	43									
CN(Cc1c(C(=O)N/N=C/c2cccc(F)c2)nnn1-c1nonc1N)c1ccccc1 [Compound 97]	5.62 µM	3.132	1.2108%	2.2	43									
